# Source: US8030321B2, “Benzofuro- and benzothienopyrimidine modulators of the histamine H4 receptor” (Janssen Pharmaceutica, NV, priority 2006, dated 2011)
# pKi: −log10 of the molar value. Structures can show the parent of a compound that is named as a salt.
# Target: T1, human histamine H4 receptor (Homo sapiens, UniProt Q9H3N8)
# T1 construct: expressed in transfected cells; host or cells: SK-N-MC cells or COS7 cells, transiently transfected; cell membranes used
# Experiment: Binding Assay on Recombinant Human Histamine H4 Receptor
# Details: not given
# Outline: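 Membranes from SK-N-MC or COS7 cells transiently transfected with human H4 receptor were incubated with ³H-histamine (5-70 nM); nonspecific binding defined with 10,000 nM histamine. Bound radioactivity collected by GF/C filtration and scintillation counting; test compounds assessed by displacement of ³H-ligand binding across concentrations.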
row,Structure (SMILES),pKi
1,"CN1C[C@@H]2C[C@H]1CN2c1nc(N)nc2c1oc1ccc(Cl)cc12 [Example 106, (S,S)-8-Chloro-4-(5-methyl-2,5-diaza-bicyclo[2.2.1]hept-2-yl)-benzo[4,5]furo[3,2-d]pyrimidin-2-ylamine trifluoroacetic acid salt]",7.96

# Same assay, conditions: competition binding with 3H-histamine (5 nM), membranes of SK-N-MC or COS7 cells expressing human H4 receptor; Cheng-Prusoff, KD 5 nM; average of results obtained; read-out: Ki
row,pKi,Structure (SMILES)
1,7.70,"CN[C@@H]1CCN(c2nc(N)nc3c2oc2cccc(OC)c23)C1 [Example 100, (R)-9-Methoxy-4-(3-methylamino-pyrrolidin-1-yl)-benzo[4,5]furo[3,2-d]pyrimidin-2-ylamine trifluoroacetic acid salt]"
2,8.11,"CN1CCN(c2nc(N)nc3c2oc2ccc(Cl)c(Cl)c23)CC1 [Example 101, 8,9-Dichloro-4-(4-methyl-piperazin-1-yl)-benzo[4,5]furo[3,2-d]pyrimidin-2-ylamine trifluoroacetic acid salt]"
3,7.92,"CN[C@@H]1CCN(c2nc(N)nc3c2oc2ccc(OC)cc23)C1 [Example 102, (R)-8-Methoxy-4-(3-methylamino-pyrrolidin-1-yl)-benzo[4,5]furo[3,2-d]pyrimidin-2-ylamine trifluoroacetic acid salt]"
4,8.47,"NCC1CN(c2nc(N)nc3c2oc2ccc(Cl)cc23)C1 [Example 103, 4-(3-Aminomethyl-azetidin-1-yl)-8-chloro-benzo[4,5]furo[3,2-d]pyrimidin-2-ylamine trifluoroacetic acid salt]"
5,7.21,"Nc1nc(N2CCNCC2)c2oc3ccc(Cl)c(Cl)c3c2n1 [Example 104, 8,9-Dichloro-4-piperazin-1-yl-benzo[4,5]furo[3,2-d]pyrimidin-2-ylamine trifluoroacetic acid salt]"
6,6.44,"COc1ccc2oc3c(N4CCC[C@H](N)C4)nc(N)nc3c2c1 [Example 107, (S)-4-(3-Amino-piperidin-1-yl)-8-methoxy-benzo[4,5]furo[3,2-d]pyrimidin-2-ylamine trifluoroacetic acid salt]"
7,8.59,"Nc1nc(N2CC[C@@H](N)C2)c2oc3ccccc3c2n1 [Example 108, (R)-4-(3-Amino-pyrrolidin-1-yl)-benzo[4,5]furo[3,2-d]pyrimidin-2-ylamine]"
8,6.59,"CN[C@@H]1CCN(c2nc(N)nc3c2oc2ncc(Cl)cc23)C1 [Example 109, (R)-3-Chloro-8-(3-methylamino-pyrrolidin-1-yl)-9-oxa-1,5,7-triaza-fluoren-6-ylamine]"
9,5.74,"Nc1nc(NCC2CNC2)c2oc3ccc(Cl)cc3c2n1 [Example 110, N^4-Azetidin-3-ylmethyl-8-chloro-benzo[4,5]furo[3,2-d]pyrimidine-2,4-diamine trifluoroacetic acid salt]"
10,6.48,"Nc1nc(NC2CNC2)c2oc3ccc(Cl)cc3c2n1 [Example 111, N^4-Azetidin-3-yl-8-chloro-benzo[4,5]furo[3,2-d]pyrimidine-2,4-diamine trifluoroacetic acid salt]"
11,7.39,"NCCNc1nc(N)nc2c1oc1ccc(Cl)cc12 [Example 112, N^4-(2-Amino-ethyl)-8-chloro-benzo[4,5]furo[3,2-d]pyrimidine-2,4-diamine trifluoroacetic acid salt]"
12,8.37,"CN1CCN(c2nc(NCCO)nc3c2oc2ccc(Cl)cc23)CC1 [Example 115, 2-[8-Chloro-4-(4-methyl-piperazin-1-yl)-benzo[4,5]furo[3,2-d]pyrimidin-2-ylamino]-ethanol]"
13,7.17,"CN1CCN(c2nc(NCCO)nc3c2oc2ccccc23)CC1 [Example 116, 2-[4-(4-Methyl-piperazin-1-yl)-benzo[4,5]furo[3,2-d]pyrimidin-2-ylamino]-ethanol]"
14,6.70,"COc1ccc2oc3c(N4CCN(C)CC4)nc(NCCO)nc3c2c1 [Example 118, 2-[8-Methoxy-4-(4-methyl-piperazin-1-yl)-benzo[4,5]furo[3,2-d]pyrimidin-2-ylamino]-ethanol]"
15,6.46,"CN1CCN(c2nc(NC3CC3)nc3c2oc2ccc(Cl)cc23)CC1 [Example 119, [8-Chloro-4-(4-methyl-piperazin-1-yl)-benzo[4,5]furo[3,2-d]pyrimidin-2-yl]-cyclopropyl-amine]"
16,5.48,"CC(C)CNc1nc(N2CCN(C)CC2)c2oc3ccc(Cl)cc3c2n1 [Example 120, [8-Chloro-4-(4-methyl-piperazin-1-yl)-benzo[4,5]furo[3,2-d]pyrimidin-2-yl]-isobutyl-amine]"
17,6.66,"C=CCNc1nc(N2CCN(C)CC2)c2oc3ccc(Cl)cc3c2n1 [Example 121, Allyl-[8-chloro-4-(4-methyl-piperazin-1-yl)-benzo[4,5]furo[3,2-d]pyrimidin-2-yl]-amine]"
18,6.52,"CN1CCN(c2nc(NCCCN)nc3c2oc2ccc(Cl)cc23)CC1 [Example 122, N^1-[8-Chloro-4-(4-methyl-piperazin-1-yl)-benzo[4,5]furo[3,2-d]pyrimidin-2-yl]-propane-1,3-diamine]"
19,6.28,"CSCCNc1nc(N2CCN(C)CC2)c2oc3ccc(Cl)cc3c2n1 [Example 123, [8-Chloro-4-(4-methyl-piperazin-1-yl)-benzo[4,5]furo[3,2-d]pyrimidin-2-yl]-(2-methylsulfanyl-ethyl)-amine]"
20,7.01,"CNc1nc(N2CCN(C)CC2)c2oc3ccc(Cl)cc3c2n1 [Example 124, [8-Chloro-4-(4-methyl-piperazin-1-yl)-benzo[4,5]furo[3,2-d]pyrimidin-2-yl]-methyl-amine]"
21,6.24,"OCCNc1nc(N2C[C@@H]3C[C@H]2CN3)c2oc3ccc(Cl)cc3c2n1 [Example 125, (S,S)-2-[8-Chloro-4-(2,5-diaza-bicyclo[2.2.1]hept-2-yl)-benzo[4,5]furo[3,2-d]pyrimidin-2-ylamino]-ethanol]"
22,6.68,"CNC1CCN(c2nc(NCCO)nc3c2oc2ccc(Cl)cc23)C1 (stereo not shown) [Example 126, 2-[8-Chloro-4-(3-methylamino-pyrrolidin-1-yl)-benzo[4,5]furo[3,2-d]pyrimidin-2-ylamino]-ethanol]"
23,6.59,"CN1CCCN(c2nc(NCCO)nc3c2oc2ccc(Cl)cc23)CC1 [Example 127, 2-[8-Chloro-4-(4-methyl-[1,4]diazepan-1-yl)-benzo[4,5]furo[3,2-d]pyrimidin-2-ylamino]-ethanol]"
24,7.72,"Nc1nc(N2CC(N)C2)c2oc3ccc(Cl)cc3c2n1 [Example 129, 4-(3-Amino-azetidin-1-yl)-8-chloro-benzo[4,5]furo[3,2-d]pyrimidin-2-ylamine trifluoroacetic acid salt]"
25,6.85,"C[C@@H]1CN(c2nc(N)nc3c2oc2ccc(Cl)cc23)[C@@H](C)CN1 [Example 130, (2S,5R)-8-Chloro-4-(2,5-dimethyl-piperazin-1-yl)-benzo[4,5]furo[3,2-d]pyrimidin-2-ylamine trifluoroacetic acid salt]"
26,7.22,"C[C@H]1CNCCN1c1nc(N)nc2c1oc1ccc(Cl)cc12 [Example 131, (S)-8-Chloro-4-(2-methyl-piperazin-1-yl)-benzo[4,5]furo[3,2-d]pyrimidin-2-ylamine trifluoroacetic acid salt]"

row,Structure (SMILES),pKi
1,"COc1ccc2oc3c(N4C[C@@H]5C[C@H]4CN5)nc(N)nc3c2c1 [Example 113, (S,S)-4-(2,5-Diaza-bicyclo[2.2.1]hept-2-yl)-8-methoxy-benzo[4,5]furo[3,2-2]pyrimidin-2-ylamine trifluoroacetic acid salt]",6.38
